In patent US5214174A, “Platinum complex and anti-tumor agent comprising said complex as active ingredient” (Tsumura & Co., priority 1989, dated 1993):

How the values were obtained:
[1] = system: Mouse leukemia L1210 cells; test: Anti-tumor effect (life prolongation) in mice transplanted with L1210 cells; assay type: in vivo, mouse (female BDF1); conditions: abdominal cavity; for ILS30 (dose giving a 30% life-prolonging effect over the control group) / ILSmax (dose giving a highest life-prolonging effect) / TR (cure ratio; ILSmax/ILS30) / T/C (life prolongation ratio) / ratio of the number of surviving mice to the number of tested mice / Average Survival Day Number: once a day for 3 days; for ratio of the number of surviving mice to the number of tested mice: 30th day; for Average Survival Day Number: 30 days
Method: Mouse leukemia L1210 cells (1×10^5) were transplanted into the abdominal cavity of a 6-weeks-old female BDF1 mouse. Then, continuously for 3 days from the next day, a compound of a compound obtained in an example described below or CDDP was administered to the abdominal cavity once a day. In the control group, physiological saline solution alone was similarly administered.
The anti-tumor effect was evaluated based on the life prolongation ratio (T/C value) determined from the average survival day numbers of the group of the compound obtained in the example and the control group after 30 days from the transplantation of L1210. On the 30th day from the transplantation, the experiment was concluded. In the case of mice surviving for more than 30 days, the survival day number was regarded as 30. [formula] The average survival day number at each dose, the T/C value (%) and the ratio of the number of surviving mice upon termination of the experiment to the number of tested mice are shown in Table 2. The ILS30 value (the dose giving a 30% life-prolonging effect over the control group), the ILSmax value (the dose giving a highest life-prolonging effect), the TR value (cure ratio; ILSmax /ILS30) and the CR value (the ratio of the number of mice completely cured at the ILSmax value and the number of mice showing no propagation of a tumor after 30 days from the transplantation to the number of tested mice) are shown in Table 3.
Note, 1 indicates the ratio of the number of surviving mice to the number of tested mice.

Acute toxicity test = assay type: in vivo, mouse (male, ICR family); conditions: administration into the abdominal cavity, male ICR mice
[2] = system: L1210 mouse leukemia cells; test: Inhibition of propagation of cancer cells, MTT method, 48 hours; assay type: cell-based; conditions: 37° C.
Method: (§1) L1210 mouse leukemia cells, P388 mouse leukemia cells, Hela human uterine neck cancer cells, T24 human bladder cancer cells or MCF7 human mammary cancer cells were suspended in Eagle medium (Hela and T24) containing 10% bovine fetal serum, PRMI1640 medium (L1210 and MCF7) or PRM11740 medium (P388) mixed with 5×10^-5 M mercaptoethanol, and the cells were seeded on a 96-well plate at an inoculum size of 3×10^3 cells per hole. A compound obtained in an example described below or cysplatin (CDDP) was diluted with physiological saline solution and added to the medium at various concentrations. Culturing was conducted at 37° C. for 48 hours in a carbon dioxide incubator, and the propagation of cells was determined by the MTT [3-(4,5-dimethylthiazol-2-yl-)-2,5-diphenyl tetrazolium bromide] method (J. Immunol. Method, 65, 55, 1983). The absorbance A after 48 hours of culturing at each concentration, the absorbance B after 48 hours of culturing in the control, and the absorbance C before addition of the compound obtained in the example were determined, and the propagation reaction rate D of each concentration was calculated from the following formula: [formula] The concentration IC50, unit: μg/ml) of the compound obtained in the example giving the value corresponding to 50% of the value of the control was determined from the curve showing the relationship between the concentration of the compound obtained in the example and the propagation reaction rate.

[3] = system: T24 human bladder cancer cells; test: as above; assay type: cell-based; conditions: 37° C.
Method: as §1

[4] = system: MCF7 human mammary cancer cells; test: as above; assay type: cell-based; conditions: 37° C.
Method: as §1

[5] = system: Hela human uterine neck cancer cells; test: as above; assay type: cell-based; conditions: 37° C.
Method: as §1

[6] = system: P388 mouse leukemia cells; test: as above; assay type: cell-based; conditions: 37° C.
Method: as §1

Row | Compound | ILS30 (dose giving a 30% life-prolonging effect over the control group) [1] | ILSmax (dose giving a highest life-prolonging effect) [1] | TR (cure ratio; ILSmax/ILS30) [1] | CR (ratio of mice completely cured at ILSmax and showing no propagation of a tumor after 30 days to tested mice) [1] | IC50 [2] | IC50 [3] | IC50 [4] | IC50 [5] | IC50 [6] | other results
1 | [NH2][Pt]([NH2])([Cl])[Cl] [CDDP, cisplatin, reference compound] | 1.5 mg/kg | 6.0 mg/kg | 4 | 3/6 | 0.46 µg/mL | 1.51 µg/mL | 3.28 µg/mL | 1.42 µg/mL | 0.09 µg/mL | LD50 (Acute toxicity test): 14.6 mg/kg
2 | 1:1 mixture of oxalate-(1R,2R)-diaminocyclooctane platinum (II) and oxalate-(1S,2S)-diaminocyclooctane platinum (II) [Example 1] | 0.06 mg/kg | 10.0 mg/kg | 167 | 6/6 | 0.03 µg/mL | 1.43 µg/mL | 0.41 µg/mL | 0.29 µg/mL | 0.06 µg/mL | T/C (life prolongation ratio) ([1]; 0.3 mg/kg): > 183%; ratio of the number of surviving mice to the number of tested mice ([1]; 0.3 mg/kg): 1/6; Average Survival Day Number ([1]; 0.3 mg/kg): > 16.8 days; T/C (life prolongation ratio) ([1]; 1.0 mg/kg): > 214%; ratio of the number of surviving mice to the number of tested mice ([1]; 1.0 mg/kg): 1/6; Average Survival Day Number ([1]; 1.0 mg/kg): > 19.7 days; T/C (life prolongation ratio) ([1]; 3.0 mg/kg): > 220%; ratio of the number of surviving mice to the number of tested mice ([1]; 3.0 mg/kg): 2/6; Average Survival Day Number ([1]; 3.0 mg/kg): > 20.3 days; T/C (life prolongation ratio) ([1]; 10.0 mg/kg): > 326%; ratio of the number of surviving mice to the number of tested mice ([1]; 10.0 mg/kg): 6/6; Average Survival Day Number ([1]; 10.0 mg/kg): > 30.0 days
